The values that follow are results of earlier work, collected in patent US20240139480A1, “RETENTIVE DEVICES FOR GASTROINTESTINAL TRACT” (Teva Pharmaceutical Industries Ltd., priority 2021, published 2024).

For the series the following is noted: given as ester prodrug; extensive intestinal esterase degradation.

For the compound `CC(C)OC(=O)OCOP(=O)(CO[C@H](C)Cn1cnc2c(N)ncnc21)OCOC(=O)OC(C)C` [Tenofovir disoproxil], the bioavailability result is given as “about 30%”.
